Assays:
Type in all cases: biochemical
Btk [1] = target: T1, Btk (Homo sapiens, UniProt Q06187); experiment: Btk in vitro inhibitory activity (Method A, B or C); design: purified from insect cells as a full-length construct containing a N-terminal 6×-His tag; His6 (N); made in house; host or cells: insect cells (baculovirus, Sf21); settings: one of the methods of Example 53a, 53b, 53c
Description: Btk kinase activity is determined using a time-resolved fluorescence resonance energy transfer (TR-FRET) methodology. Measurements are performed in a reaction volume of 50 μL using 96-well assay plates. Kinase enzyme, inhibitor, ATP (at the Km for the kinase), and 1 μM peptide substrate (Biotin-AVLESEEELYSSARQ-NH2 (SEQ ID NO: 1)) are incubated in a reaction buffer composed of 20 mM Tris, 50 mM NaCl, MgCl2 (5-25 mM depending on the kinase), MnCl2 (0-10 mM), 1 mM DTT, 0.1 mM EDTA, 0.01% bovine serum albumin, 0.005% Tween-20, and 10% DMSO at pH 7.4 for one hour. The reaction is quenched by the addition of 1.2 equivalents of EDTA (relative to divalent cation) in 25 μL of 1× Lance buffer (Perkin-Elmer). Streptavidin-APC (Perkin-Elmer) and Eu-labeled p-Tyr100 antibody (Perkin-Elmer) in 1× Lance buffer are added in a 25 μL volume to give final concentrations of 100 nM and 2.5 nM, respectively, and the mixture is allowed to incubate for one hour. The TR-FRET signal is measured on a multimode plate reader with an excitation wavelength (λEx) of 330 nm and detection wavelengths (λEm) of 615 and 665 nm. Activity is determined by the ratio of the fluorescence at 665 nm to that at 615 nm. For each compound, enzyme activity is measured at various concentrations of compound. Negative control reactions are performed in the absence of inhibitor in replicates of six, and two no-enzyme controls are used to determine baseline fluorescence levels. Inhibition constants, Ki(app), ware obtained using the program BatchKi (Kuzmic et al. (2000), Anal. Biochem. 286:45-50). IC50s are obtained according to the equation: IC50={Ki(app)/1+[ATP]/Km^ATP)}+[E]total/2;
For all kinases, [ATP]=Km^ATP, [Btk]total=0.5 nM and [Lck]total=6 nM.
Kinase activity is measured in vitro using electrophoretic mobility shift assay. The kinase reactions are assembled in a total volume of 25 μL in 384 well plates. The reactions comprise: BTK enzyme (1 nM, N-terminal His6-tagged, recombinant, full-length, human BTK purified from baculovirus Sf21 insect cell system), inhibitor, ATP (16 μM, the apparent Km for the kinase), fluorescently labeled peptide substrate (1 μM, FAM-GEEPLYWSFPAKKK-NH2 (SEQ ID NO: 2)) in a reaction buffer composed of 100 mM HEPES, pH7.5, 5 mM MgCl2 1 mM DTT, 0.1% bovine serum albumin, 0.01% Triton X-100, and 1% DMSO. The reaction is incubated for one hour and is quenched by the addition of 45 μL of termination buffer (100 mM HEPES, pH7.5, 0.01% Triton X-100, 30 mM EDTA). The terminated reactions are analyzed using 12 channel LabChip® 3000 microfluidic detection instrument (Caliper Life Sciences). The enzymatic phosphorylation of the peptide results in a change in net charge, enabling electrophoretic separation of product from substrate peptide. As substrate and product peptides are separated, two peaks of fluorescence are observed. Change in the relative fluorescence intensity of the substrate and product peaks is the parameter measured, reflecting enzyme activity. In the presence of an inhibitor, the ratio between product and substrate is altered: the signal of the product decreases, while the signal of the substrate increases.
Activity in each sample is determined as the product to sum ratio (PSR):P/(S+P), where P is the peak height of the product peptide and S is the peak height of the substrate peptide. For each compound, enzyme activity is measured at various concentrations (12 concentrations of compound spaced by 3× dilution intervals). Negative control samples (0%−inhibition in the absence of inhibitor) and positive control samples (100%−inhibition, in the presence of 20 mM EDTA) are assembled in replicates of four and are used to calculate %−inhibition values for each inhibitor at each concentration. Percent inhibition (Pinh) is determined using following equation: […]

Btk [2] = target: T1, Btk; experiment: Inhibition of a panel of kinases: Btk; settings: kinase panel, Table 2
Description: (§1) The degree of inhibition of a panel of kinases is determined using assays similar to the kinase assay described in Example 53.

EGFR = EGFR (Homo sapiens, UniProt P00533); experiment: Inhibition of a panel of kinases: EGFR; settings: kinase panel, Table 2
Description: as §1

LCK = LCK (Homo sapiens, UniProt P06239); experiment: Inhibition of a panel of kinases: LCK; settings: kinase panel, Table 2
Description: as §1

T1 sequence (Q06187 whole entry): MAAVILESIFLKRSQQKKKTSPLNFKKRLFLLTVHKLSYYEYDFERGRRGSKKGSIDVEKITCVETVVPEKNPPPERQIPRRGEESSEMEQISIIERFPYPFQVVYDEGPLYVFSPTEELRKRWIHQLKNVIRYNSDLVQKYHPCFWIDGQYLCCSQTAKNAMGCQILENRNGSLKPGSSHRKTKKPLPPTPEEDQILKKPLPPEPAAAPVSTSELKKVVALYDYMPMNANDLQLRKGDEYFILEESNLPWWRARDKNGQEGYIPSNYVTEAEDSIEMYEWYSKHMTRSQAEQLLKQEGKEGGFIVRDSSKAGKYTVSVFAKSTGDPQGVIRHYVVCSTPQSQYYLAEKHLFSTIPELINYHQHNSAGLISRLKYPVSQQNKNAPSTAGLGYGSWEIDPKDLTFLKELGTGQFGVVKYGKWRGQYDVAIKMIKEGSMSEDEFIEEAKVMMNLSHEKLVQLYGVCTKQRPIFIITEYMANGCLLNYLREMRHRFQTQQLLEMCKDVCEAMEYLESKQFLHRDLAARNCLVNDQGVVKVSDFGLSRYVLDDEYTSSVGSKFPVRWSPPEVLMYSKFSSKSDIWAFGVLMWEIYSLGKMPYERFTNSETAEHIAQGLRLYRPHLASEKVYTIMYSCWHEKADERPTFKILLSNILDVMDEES
Sequence of EGFR (P00533 25-1210, species assumed): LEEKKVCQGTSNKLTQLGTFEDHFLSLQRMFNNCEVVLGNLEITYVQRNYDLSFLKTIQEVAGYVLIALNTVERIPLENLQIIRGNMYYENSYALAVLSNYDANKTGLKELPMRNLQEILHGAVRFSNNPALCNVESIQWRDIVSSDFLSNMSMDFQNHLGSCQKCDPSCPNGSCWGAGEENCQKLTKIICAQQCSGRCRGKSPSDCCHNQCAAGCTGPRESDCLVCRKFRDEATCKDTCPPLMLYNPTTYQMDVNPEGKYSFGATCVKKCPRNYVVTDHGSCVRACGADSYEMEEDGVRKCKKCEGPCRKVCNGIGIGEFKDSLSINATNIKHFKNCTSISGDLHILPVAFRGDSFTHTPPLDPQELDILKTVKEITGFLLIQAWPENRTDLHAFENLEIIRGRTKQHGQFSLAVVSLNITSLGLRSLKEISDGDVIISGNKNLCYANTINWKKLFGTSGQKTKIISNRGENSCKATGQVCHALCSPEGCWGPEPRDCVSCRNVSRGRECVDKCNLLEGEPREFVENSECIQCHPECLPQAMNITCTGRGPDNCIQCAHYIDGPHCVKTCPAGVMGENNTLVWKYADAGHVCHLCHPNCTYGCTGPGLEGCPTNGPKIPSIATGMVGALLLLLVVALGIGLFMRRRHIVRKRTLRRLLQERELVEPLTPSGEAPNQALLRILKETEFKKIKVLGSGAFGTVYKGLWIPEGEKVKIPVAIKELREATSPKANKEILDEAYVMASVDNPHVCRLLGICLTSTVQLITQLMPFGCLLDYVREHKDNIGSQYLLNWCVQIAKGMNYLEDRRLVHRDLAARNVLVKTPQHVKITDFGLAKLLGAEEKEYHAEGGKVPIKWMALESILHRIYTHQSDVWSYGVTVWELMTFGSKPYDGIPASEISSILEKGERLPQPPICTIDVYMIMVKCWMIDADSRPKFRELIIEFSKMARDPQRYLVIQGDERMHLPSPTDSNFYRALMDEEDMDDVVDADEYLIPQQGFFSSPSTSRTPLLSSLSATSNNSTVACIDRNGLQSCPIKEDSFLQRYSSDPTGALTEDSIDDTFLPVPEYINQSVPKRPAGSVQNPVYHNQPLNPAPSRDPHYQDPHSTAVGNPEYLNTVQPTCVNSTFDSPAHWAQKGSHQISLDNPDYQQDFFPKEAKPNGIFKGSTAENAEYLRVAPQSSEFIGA
Sequence of LCK (P06239 whole entry, species assumed): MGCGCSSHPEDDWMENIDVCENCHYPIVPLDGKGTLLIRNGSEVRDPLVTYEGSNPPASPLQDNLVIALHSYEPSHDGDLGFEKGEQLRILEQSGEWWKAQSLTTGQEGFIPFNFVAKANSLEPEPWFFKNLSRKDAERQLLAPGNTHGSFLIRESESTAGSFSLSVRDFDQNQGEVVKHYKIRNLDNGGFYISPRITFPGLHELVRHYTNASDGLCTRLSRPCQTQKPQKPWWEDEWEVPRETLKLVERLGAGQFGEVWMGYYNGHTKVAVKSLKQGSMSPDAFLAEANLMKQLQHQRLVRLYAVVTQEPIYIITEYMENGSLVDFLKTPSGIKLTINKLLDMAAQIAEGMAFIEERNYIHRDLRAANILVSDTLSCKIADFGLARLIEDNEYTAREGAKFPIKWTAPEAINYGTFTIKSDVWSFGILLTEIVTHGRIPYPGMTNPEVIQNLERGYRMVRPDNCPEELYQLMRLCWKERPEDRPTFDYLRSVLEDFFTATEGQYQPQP

| SMILES | IC50 (Btk [1]) | IC50 (Btk [2]) | IC50 (EGFR) | IC50 (LCK) |
| --- | --- | --- | --- | --- |
| N#CC1(C(=O)N2CC[C@@H](n3nc(-c4ccc(C(=O)Nc5ccccn5)cc4)c4c(N)ncnc43)C2)CC1 [Compound ID 52, (R)-4-(4-amino-1-(1-(1-cyanocyclopropanecarbonyl)pyrrolidin-3-yl)-1H-pyrazolo[3,4-d]pyrimidin-3-yl)-N-(pyridin-2-yl)benzamide] | > 0.01 µM | 0.1 to 1 µM |  |  |
| CC(C)=CC(=O)N1CC[C@@H](n2nc(-c3ccc(C(=O)Nc4cc(C)ccn4)cc3)c3c(N)ncnc32)C1 [Compound ID 33, (R)-4-(4-amino-1-(1-(3-methylbut-2-enoyl)pyrrolidin-3-yl)-1H-pyrazolo[3,4-d]pyrimidin-3-yl)-N-(4-methylpyridin-2-yl)benzamide] | > 0.01 µM |  |  |  |
| C=CC(=O)N1CCC[C@@H](n2nc(-c3ccc(C(=O)Nc4ccccn4)cc3)c3c(N)ncnc32)C1 [Compound ID 25, (R)-4-(1-(1-acryloylpiperidin-3-yl)-4-amino-1H-pyrazolo[3,4-d]pyrimidin-3-yl)-N-(pyridin-2-yl)benzamide] | ≤ 0.01 µM |  |  |  |
| COCC#CC(=O)N1CC[C@@H](n2nc(-c3ccc(C(=O)Nc4ccccn4)cc3)c3c(N)ncnc32)C1 [Compound ID 18, (R)-4-(4-amino-1-(1-(4-methoxybut-2-ynoyl)pyrrolidin-3-yl)-1H-pyrazolo[3,4-d]pyrimidin-3-yl)-N-(pyridin-2-yl)benzamide] |  | ≤ 0.01 µM | ≤ 0.01 µM | 0.01 to 0.1 µM |
| COCC#CC(=O)N1CC[C@@H](n2nc(-c3ccc(C(=O)Nc4cc(C(F)(F)F)ccn4)cc3)c3c(N)ncnc32)C1 [Compound ID 50, (R)-4-(4-amino-1-(1-(4-methoxybut-2-ynoyl)pyrrolidin-3-yl)-1H-pyrazolo[3,4-d]pyrimidin-3-yl)-N-(4-(trifluoromethyl)pyridin-2-yl)benzamide] | ≤ 0.01 µM |  |  |  |
| CC#CC(=O)N1CCC[C@@H](n2nc(-c3ccc(C(=O)Nc4cc(CCC)ccn4)cc3)c3c(N)ncnc32)C1 [Compound ID 13, (R)-4-(4-amino-1-(1-but-2-ynoylpiperidin-3-yl)-1H-pyrazolo[3,4-d]pyrimidin-3-yl)-N-(4-propylpyridin-2-yl)benzamide] | ≤ 0.01 µM | ≤ 0.01 µM | 0.1 to 1 µM | ≤ 0.01 µM |
| CC#CC(=O)N1CC[C@@H](n2nc(-c3ccc(C(=O)Nc4cc(CCC)ccn4)cc3)c3c(N)ncnc32)C1 [Compound ID 9, (R)-4-(4-amino-1-(1-but-2-ynoylpyrrolidin-3-yl)-1H-pyrazolo[3,4-d]pyrimidin-3-yl)-N-(4-propylpyridin-2-yl)benzamide] | ≤ 0.01 µM | ≤ 0.01 µM | ≤ 0.01 µM | 0.1 to 1 µM |
| C=CC(=O)N1CCC[C@@H](n2nc(-c3ccc(C(=O)Nc4cc(C(C)C)ccn4)cc3)c3c(N)ncnc32)C1 [Compound ID 28, (R)-4-(1-(1-acryloylpiperidin-3-yl)-4-amino-1H-pyrazolo[3,4-d]pyrimidin-3-yl)-N-(4-isopropylpyridin-2-yl)benzamide] | ≤ 0.01 µM |  |  |  |
| Nc1ncnc2c1c(-c1ccc(C(=O)Nc3ccccn3)cc1)nn2[C@@H]1CCN(C(=O)C#CCO)C1 [Compound ID 19, (R)-4-(4-amino-1-(1-(4-hydroxybut-2-ynoyl)pyrrolidin-3-yl)-1H-pyrazolo[3,4-d]pyrimidin-3-yl)-N-(pyridin-2-yl)benzamide] |  | ≤ 0.01 µM | 0.01 to 0.1 µM | 0.1 to 1 µM |
| C=CC(=O)N1CCC[C@@H](n2nc(-c3ccc(C(=O)Nc4cc(C#N)ccn4)cc3)c3c(N)ncnc32)C1 [Compound ID 29, (R)-4-(1-(1-acryloylpiperidin-3-yl)-4-amino-1H-pyrazolo[3,4-d]pyrimidin-3-yl)-N-(4-cyanopyridin-2-yl)benzamide] | ≤ 0.01 µM |  |  |  |

Second part, the molecule after the results:

| IC50 (Btk [1]) | IC50 (Btk [2]) | IC50 (EGFR) | IC50 (LCK) | SMILES |
| --- | --- | --- | --- | --- |
| ≤ 0.01 µM |  |  |  | Nc1ncnc2c1c(-c1ccc(C(=O)Nc3cc(C(F)(F)F)ccn3)cc1)nn2[C@@H]1CCN(C(=O)C#CCO)C1 [Compound ID 49, (R)-4-(4-amino-1-(1-(4-hydroxybut-2-ynoyl)pyrrolidin-3-yl)-1H-pyrazolo[3,4-d]pyrimidin-3-yl)-N-(4-(trifluoromethyl)pyridin-2-yl)benzamide] |
| ≤ 0.01 µM | ≤ 0.01 µM | 0.1 to 1 µM | 0.01 to 0.1 µM | CC#CC(=O)N1CCC[C@@H](n2nc(-c3ccc(C(=O)Nc4cc(C#N)ccn4)cc3)c3c(N)ncnc32)C1 [Compound ID 14, (R)-4-(4-amino-1-(1-but-2-ynoylpiperidin-3-yl)-1H-pyrazolo[3,4-d]pyrimidin-3-yl)-N-(4-cyanopyridin-2-yl)benzamide] |
| ≤ 0.01 µM |  |  |  | C=CC(=O)N1CC[C@@H](n2nc(-c3ccc(C(=O)Nc4cc(C#N)ccn4)cc3)c3c(N)ncnc32)C1 [Compound ID 24, (R)-4-(1-(1-acryloylpyrrolidin-3-yl)-4-amino-1H-pyrazolo[3,4-d]pyrimidin-3-yl)-N-(4-cyanopyridin-2-yl)benzamide] |
| ≤ 0.01 µM | ≤ 0.01 µM | 0.1 to 1 µM | 0.01 to 0.1 µM | CC#CC(=O)N1CCC[C@@H](n2nc(-c3ccc(C(=O)Nc4cc(C(F)(F)F)ccn4)cc3)c3c(N)ncnc32)C1 [Compound ID 12, (R)-4-(4-amino-1-(1-but-2-ynoylpiperidin-3-yl)-1H-pyrazolo[3,4-d]pyrimidin-3-yl)-N-(4-(trifluoromethyl)pyridin-2-yl)benzamide] |
| ≤ 0.01 µM |  |  |  | C/C=C/C(=O)N1CC[C@@H](n2nc(-c3ccc(C(=O)Nc4cc(C)ccn4)cc3)c3c(N)ncnc32)C1 [Compound ID 32, (R,E)-4-(4-amino-1-(1-but-2-enoylpyrrolidin-3-yl)-1H-pyrazolo[3,4-d]pyrimidin-3-yl)-N-(4-methylpyridin-2-yl)benzamide] |
| ≤ 0.01 µM | ≤ 0.01 µM | ≤ 0.01 µM | 0.1 to 1 µM | CC#CC(=O)N1CCC[C@@H](n2nc(-c3ccc(C(=O)Nc4ncc(C)s4)cc3)c3c(N)ncnc32)C1 [Compound ID 17, (R)-4-(4-amino-1-(1-but-2-ynoylpiperidin-3-yl)-1H-pyrazolo[3,4-d]pyrimidin-3-yl)-N-(5-methylthiazol-2-yl)benzamide] |
| ≤ 0.01 µM | ≤ 0.01 µM | ≤ 0.01 µM | 0.1 to 1 µM | CC#CC(=O)N1CCC[C@@H](n2nc(-c3ccc(C(=O)Nc4ccccn4)cc3)c3c(N)ncnc32)C1 [Compound ID 10, (R)-4-(4-amino-1-(1-but-2-ynoylpiperidin-3-yl)-1H-pyrazolo[3,4-d]pyrimidin-3-yl)-N-(pyridin-2-yl)benzamide] |
| ≤ 0.01 µM | ≤ 0.01 µM | 0.01 to 0.1 µM | 0.01 to 0.1 µM | CC#CC(=O)N1CCC[C@@H](n2nc(-c3ccc(C(=O)Nc4cc(C)ccn4)cc3)c3c(N)ncnc32)C1 [Compound ID 11, (R)-4-(4-amino-1-(1-but-2-ynoylpiperidin-3-yl)-1H-pyrazolo[3,4-d]pyrimidin-3-yl)-N-(4-methylpyridin-2-yl)benzamide] |

From patent publication US9533991B2, “Inhibitors of Bruton's tyrosine kinase” (PHARMACYCLICS LLC, priority 2014, dated 2017)
